Assay results: US9260504B2, “N- and C-terminal substituted antagonistic analogs of GH-RH” (University of Miami, priority 2008, dated 2016)

Columns and labels:
Type in all cases: in vivo
[1] = tested on: H460 human non-small cell lung cancer cell line; assay: H460 human non-small cell lung cancer xenografts in nude mice (Example XV); settings: 5 μg/day s.c.
Text: The aim of this study was to find out the tumor inhibitor effect of the latest GHRH antagonists (Peptide 11423, Peptide 11602, Peptide 11604, Peptide 11606) on H460 human non-small cell lung cancer cell line. Female nude mice were xenografted subcutaneously with approximately 3 mm^3 pieces of H460 human non-small cell lung cancer malignant tumor tissue. When tumors reached the mean volume of approximately 90 mm^3, the animals was randomly assigned into different groups. Tumor volumes and body weight were measured once a week. At the end of the experiment mice were anesthetized and sacrificed. Tumors were carefully excised, weighed and were stored at −80° C. until further investigation. Organs and tumor samples were preserved in 10% formaldehyde.

[2] = tested on: PC-3 human hormone-independent prostate cancer; assay: PC3 androgen-independent prostate cancer xenografts in nude mice (Example XIV)
Method: Male nude mice were implanted s.c. with 3 mm^3 pieces of PC-3 human hormone-independent prostate cancer tissue on both flanks. When tumors reached a volume of approximately 50 mm^3, the mice were divided into 8 experimental groups with 8 to 10 animals in each group and received single daily injections for 28 days as follows: 1. Control (vehicle solution); 2. P-11513 2 μg/day; 3. P-11602 2 μg/day; 4. P-11602 1 μg/day; 5. P-11604 2 μg/day; 6. P-11606 2 μg/day; 7. P-11610 2 μg/day; 8. P-11610 1 μg/day.
Tumor volumes were measured once a week. The experiment was ended on day 28 by sacrificing the mice under Isoflurane anesthesia. Resulting tumors were cleaned, weighed, and snap-frozen until further analyses. Statistical analyses of the measurement results were done by two-tailed t-test, p<0.05 being considered significant.

[3] = tested on: HT human diffuse mixed B cell lymphoma cell line; assay: HT human diffuse mixed B cell lymphoma xenografts in nude mice; settings: 5 μg/day s.c.
Method: The aim of this study was to find out the tumor inhibitor effect of the latest GHRH antagonists (Peptide 11602, Peptide 11604, Peptide 11606, and Peptide 11610) at the dose of 5 μg/day on HT human diffuse mixed B cell lymphoma cell line. Female nude mice were xenografted subcutaneously with approximately 3 mm^3 pieces of HT malignant tumor tissue. When tumors reached the mean volume of approximately 120 mm^3, the animals were randomly assigned into different groups. Tumor volumes and body weight were measured once a week. At the end of the experiment mice were anesthetized and sacrificed. Tumors were carefully excised, weighed and were stored at −80° C. until further investigation. Organs and tumor samples were preserved in 10% formaldehyde.

[4] = tested on: Human ovarian cancer SKOV3 cells; assay: SKOV3 ovarian cancer xenografts in nude mice; settings: 5 μg/day s.c.
Text: Human ovarian cancer SKOV3 cells growing exponentially were implanted info five female nude mice by subcutaneous (s.c.) injection of 10^7 cells in both flanks. Tumors That resulted after approximately 4 weeks in donor animals were then aseptically dissected and mechanically minced. Three mm^3 pieces of tumor tissue were transplanted subcutaneously into experimental animals with a trocar needle. When tumors reached an appropriate size (approximately 50 mm^3), mice were randomly divided into […]. The first was the control group, the second group was treated with daily s.c. injections of 5 μg P-11313, the third group was treated with daily s.c. injections of 5 μg P-11604, the fourth group was treated with daily s.c. injections of 5 μg P-11610. Tumor volume (length×width×height×0.5236) was measured every week and mean tumor volumes of each group were compared by Student's t-test. The study lasted 49 days. One week after end of treatment, mice were killed under anesthesia, tumors were snap frozen and stored at −70° C.

Substance: [(PhAc-Ada)^0-Tyr^1, D-Arg^2, (Phe(F)5)^6, Ala^8, Har^9, Tyr(Me)^10, His^11, Orn^12, Abu^15, His^20, Orn^21, Nle^27, D-Arg^28, Har^29]hGH-RH(1-29)NH2 [Peptide 11602]
- TUMOR GROWTH (%) ([1]; day 1 (baseline)): 100.00%
- TUMOR GROWTH (%) ([1]; day 7): 247.89%
- Tumor inhibition (%) ([1]; day 7): 53.21%
- TUMOR GROWTH (%) ([1]; day 14): 504.42%
- Tumor inhibition (%) ([1]; day 14): 63.52%
- TUMOR GROWTH (%) ([1]; day 21): 864.16%
- Tumor inhibition (%) ([1]; day 21): 65.00%
- TUMOR GROWTH (%) ([1]; day 28): 2575.35%
- Tumor inhibition (%) ([1]; day 28): 37.18%
- TUMOR GROWTH (%) ([2]; 1 μg/day, day 0 (baseline)): 100%
- TUMOR GROWTH (%) ([2]; 1 μg/day, day 7): 249.81%
- Tumor inhibition (%) ([2]; 1 μg/day, day 7): 24.59%
- TUMOR GROWTH (%) ([2]; 1 μg/day, day 14): 295.25%
- Tumor inhibition (%) ([2]; 1 μg/day, day 14): 50.04%
- TUMOR GROWTH (%) ([2]; 1 μg/day, day 21): 467.74%
- Tumor inhibition (%) ([2]; 1 μg/day, day 21): 60.70%
- TUMOR GROWTH (%) ([2]; 1 μg/day, day 28): 740.06%
- Tumor inhibition (%) ([2]; 1 μg/day, day 28): 60.15%
- TUMOR GROWTH (%) ([2]; 2 μg/day, day 0 (baseline)): 100%
- TUMOR GROWTH (%) ([2]; 2 μg/day, day 7): 197.77%
- Tumor inhibition (%) ([2]; 2 μg/day, day 7): 40.30%
- TUMOR GROWTH (%) ([2]; 2 μg/day, day 14): 270.61%
- Tumor inhibition (%) ([2]; 2 μg/day, day 14): 54.21%
- TUMOR GROWTH (%) ([2]; 2 μg/day, day 21): 449.82%
- Tumor inhibition (%) ([2]; 2 μg/day, day 21): 62.20%
- TUMOR GROWTH (%) ([2]; 2 μg/day, day 28): 641.31%
- Tumor inhibition (%) ([2]; 2 μg/day, day 28): 65.47%
- TUMOR GROWTH (%) ([3]; day 1 (baseline)): 100%
- Tumor inhibition (%) ([3]; day 1 (baseline)): 0%
- Tumor volume (mm^3) ([3]; day 1 (baseline)): 194.81 mm^3
- TUMOR GROWTH (%) ([3]; day 7): 192.86%
- Tumor inhibition (%) ([3]; day 7): 36.94%
- Tumor volume (mm^3) ([3]; day 7): 260.13 mm^3
- TUMOR GROWTH (%) ([3]; day 14): 281.4%
- Tumor inhibition (%) ([3]; day 14): 41.71%
- Tumor volume (mm^3) ([3]; day 14): 311.76 mm^3
- TUMOR GROWTH (%) ([3]; day 21): 462.45%
- Tumor inhibition (%) ([3]; day 21): 40.82%
- Tumor volume (mm^3) ([3]; day 21): 332.67 mm^3
- TUMOR GROWTH (%) ([3]; day 28): 608.23%
- Tumor inhibition (%) ([3]; day 28): 32.15%
- Tumor volume (mm^3) ([3]; day 28): 509.24 mm^3

Substance: [PhAc^0-Tyr^1, D-Arg^2, Cpa^6, Dip^8, Har^9, Tyr(Me)^10, His^11, Orn^12, Abu^15, His^20, Orn^21, Nle^27, D-Arg^28, Har^29-AE2A^30]hGH-RH(1-29)NH2 [Peptide 11423]
- TUMOR GROWTH (%) ([1]; day 1 (baseline)): 100.00%
- TUMOR GROWTH (%) ([1]; day 7): 412.37%
- Tumor inhibition (%) ([1]; day 7): 22.17%
- TUMOR GROWTH (%) ([1]; day 14): 761.10%
- Tumor inhibition (%) ([1]; day 14): 44.95%
- TUMOR GROWTH (%) ([1]; day 21): 1130.90%
- Tumor inhibition (%) ([1]; day 21): 54.20%
- TUMOR GROWTH (%) ([1]; day 28): 2687.38%
- Tumor inhibition (%) ([1]; day 28): 34.45%

Substance: [(PhAc-Ada)^0-Tyr^1, D-Arg^2, (Phe(F)5)^6, Ala^8, Har^9, Tyr(Me)^10, His^11, Orn^12, Abu^15, His^20, Orn^21, Nle^27, D-Arg^28, Har^29, Agm^30]hGH-RH(1-29) [Peptide 11604]
- TUMOR GROWTH (%) ([1]; day 1 (baseline)): 100.00%
- TUMOR GROWTH (%) ([1]; day 7): 341.87%
- Tumor inhibition (%) ([1]; day 7): 35.48%
- TUMOR GROWTH (%) ([1]; day 14): 609.38%
- Tumor inhibition (%) ([1]; day 14): 55.93%
- TUMOR GROWTH (%) ([1]; day 21): 1006.40%
- Tumor inhibition (%) ([1]; day 21): 59.24%
- TUMOR GROWTH (%) ([1]; day 28): 1595.34%
- Tumor inhibition (%) ([1]; day 28): 61.08%
- TUMOR GROWTH (%) ([2]; 2 μg/day, day 0 (baseline)): 100%
- TUMOR GROWTH (%) ([2]; 2 μg/day, day 7): 159.84%
- Tumor inhibition (%) ([2]; 2 μg/day, day 7): 51.75%
- TUMOR GROWTH (%) ([2]; 2 μg/day, day 14): 199.57%
- Tumor inhibition (%) ([2]; 2 μg/day, day 14): 66.23%
- TUMOR GROWTH (%) ([2]; 2 μg/day, day 21): 316.88%
- Tumor inhibition (%) ([2]; 2 μg/day, day 21): 73.37%
- TUMOR GROWTH (%) ([2]; 2 μg/day, day 28): 383.97%
- Tumor inhibition (%) ([2]; 2 μg/day, day 28): 79.33%
- TU growth (%) ([4]; day 0 (baseline)): 100%
- TU growth (%) ([4]; day 7): 144.55%
- TU inhibition (%) ([4]; day 7): 32.57%
- TU growth (%) ([4]; day 14): 174.5%
- TU inhibition (%) ([4]; day 14): 37.73%
- TU growth (%) ([4]; day 21): 179.5%
- TU inhibition (%) ([4]; day 21): 66.97%
- TU growth (%) ([4]; day 28): 167.5%
- TU inhibition (%) ([4]; day 28): 80.12%
- TU growth (%) ([4]; day 35): 182.88%
- TU inhibition (%) ([4]; day 35): 79.52%
- TU growth (%) ([4]; day 42): 397.95%
- TU inhibition (%) ([4]; day 42): 67.80%
- TU growth (%) ([4]; day 49): 309.96%
- TU inhibition (%) ([4]; day 49): 75.63%
- TUMOR GROWTH (%) ([3]; day 1 (baseline)): 100%
- Tumor inhibition (%) ([3]; day 1 (baseline)): 0%
- Tumor volume (mm^3) ([3]; day 1 (baseline)): 125.04 mm^3
- TUMOR GROWTH (%) ([3]; day 7): 129.89%
- Tumor inhibition (%) ([3]; day 7): 57.53%
- Tumor volume (mm^3) ([3]; day 7): 165.21 mm^3
- TUMOR GROWTH (%) ([3]; day 14): 175.7%
- Tumor inhibition (%) ([3]; day 14): 63.61%
- Tumor volume (mm^3) ([3]; day 14): 231.44 mm^3
- TUMOR GROWTH (%) ([3]; day 21): 271.36%
- Tumor inhibition (%) ([3]; day 21): 65.27%
- Tumor volume (mm^3) ([3]; day 21): 563.86 mm^3
- TUMOR GROWTH (%) ([3]; day 28): 338.41%
- Tumor inhibition (%) ([3]; day 28): 62.25%
- Tumor volume (mm^3) ([3]; day 28): 818.2 mm^3

Substance: [(PhAc^0-Ada)-Tyr^1, D-Arg^2, (Phe(F)5)^6, (Me-Ala)^8, Har^9, Tyr(Me)^10, His^11, Orn^12, Abu^15, His^20, Orn^21, Nle^27, D-Arg^28, Har^29, Agm^30]hGH-RH(1-29) [Peptide 11606]
- TUMOR GROWTH (%) ([1]; day 1 (baseline)): 100.00%
- TUMOR GROWTH (%) ([1]; day 7): 221.26%
- Tumor inhibition (%) ([1]; day 7): 58.24%
- TUMOR GROWTH (%) ([1]; day 14): 494.68%
- Tumor inhibition (%) ([1]; day 14): 64.22%
- TUMOR GROWTH (%) ([1]; day 21): 933.19%
- Tumor inhibition (%) ([1]; day 21): 62.20%
- TUMOR GROWTH (%) ([1]; day 28): 1482.03%
- Tumor inhibition (%) ([1]; day 28): 63.85%
- TUMOR GROWTH (%) ([2]; 2 μg/day, day 0 (baseline)): 100%
- TUMOR GROWTH (%) ([2]; 2 μg/day, day 7): 145.65%
- Tumor inhibition (%) ([2]; 2 μg/day, day 7): 56.03%
- TUMOR GROWTH (%) ([2]; 2 μg/day, day 14): 307.66%
- Tumor inhibition (%) ([2]; 2 μg/day, day 14): 47.94%
- TUMOR GROWTH (%) ([2]; 2 μg/day, day 21): 521.69%
- Tumor inhibition (%) ([2]; 2 μg/day, day 21): 56.16%
- TUMOR GROWTH (%) ([2]; 2 μg/day, day 28): 709.50%
- Tumor inhibition (%) ([2]; 2 μg/day, day 28): 61.80%
- TUMOR GROWTH (%) ([3]; day 1 (baseline)): 100%
- Tumor inhibition (%) ([3]; day 1 (baseline)): 0%
- Tumor volume (mm^3) ([3]; day 1 (baseline)): 128.49 mm^3
- TUMOR GROWTH (%) ([3]; day 7): 209.74%
- Tumor inhibition (%) ([3]; day 7): 31.38%
- Tumor volume (mm^3) ([3]; day 7): 223.02 mm^3
- TUMOR GROWTH (%) ([3]; day 14): 352.2%
- Tumor inhibition (%) ([3]; day 14): 27.05%
- Tumor volume (mm^3) ([3]; day 14): 341.77 mm^3
- TUMOR GROWTH (%) ([3]; day 21): 453.71%
- Tumor inhibition (%) ([3]; day 21): 41.94%
- Tumor volume (mm^3) ([3]; day 21): 510.24 mm^3
- TUMOR GROWTH (%) ([3]; day 28): 660.24%
- Tumor inhibition (%) ([3]; day 28): 26.35%
- Tumor volume (mm^3) ([3]; day 28): 716.13 mm^3
